Data published in patent US20230146455A1, “TREATMENT OF INFLAMMATORY DISEASES WITH PEPTIDES AND PHARMACEUTICAL COMPOSITIONS” (Yuyu Pharma, Inc., priority 2020, published 2023).
Values joined by “and” are separate entries in the source; they are usually repeats but may differ in a detail not shown here. Equal values may be shown once. Read-outs that look alike come from different tables or passages of the source. Where a SMILES comes first, the peptide text is derived from it. [ ]: non-standard residue; d: D form. Hyp = O=C(O)[C@@H]1C[C@@H](O)CN1

Tests used:
Caco-2 cells monolayer = assay: Apparent permeability, 21 day cultured Caco-2 cell monolayer, bi-directional (Example 7); assay type: in vitro ADME
Method: (§1) 10 mM stock solution of test compound was prepared in DMSO. 10 mM stock was diluted with 100% DMSO to prepare 0.2 mM, 0.2 mM stock was diluted with HBSS buffer to a final concentration of 2 μM.
(§2) Add 250 μL of DMEM to the basal compartment of 96 well multi-screen Caco-2 plates and seed 12000 cells/well (0.16×10^6 cells/ml) in all the apical wells required and 2 wells with only media as blank without cells. Place the Caco-2 plate in CO2 incubator at 37° C. for proliferation of cells.
(§3) The utilized media was replenished every alternate day by fresh medium. On 21st day, utilized medium was removed and washed twice with HBSS Buffer and incubated with HBSS buffer 30 min in incubator and initiated the assay.
(§4) 75 μL of test compound was added to apical wells and 250 μL of HBSS buffer with 1% DMSO was added to basal wells. Samples were collected at 120 min and processed as stated below.
(§5) 250 μL of test compound was added to basal wells and 75 μL of HBSS buffer with 1% DMSO was added to apical wells. Samples were collected at 120 min and processed as stated below.
(§6) Single point calibration curve in HBSS buffer was used. 100 μL of supernatant was diluted with 200 μL of water and submitted for LC-MS/MS analysis.
(§7) Efflux ratio=Papp of basal to apical samples/Papp of apical to basal samples
(§8) Recovery: {(dQ of Apical+dQ of Basal)/Standard dQ}*100

[1] = as above; assay type: in vitro ADME; settings: Caco-2, 2 μM, 120 minutes
Method: as §1, §2, §3, §4, §5, §6, §7, §8

MMP-9 = assay: Example 9 Luminex, LPS hPBMCs: MMP-9; assay type: cell-based, human
Method: Treatment Human PBMCs were pretreated with YY-101, YDE-011 and YDE-043 or reference compound; Xiidra® at various concentration (ranging from 1 nM to 100 uM) for 2 h before stimulation. An equal volume of 0.5% DMSO was used as a vehicle control. Then, the cells were treated with LPS at 5 ug/ml. The supernatants from treated cells were harvested at 24 h and placed in a 96 well for Luminex cytokine & chemokine profiling using a Luminex 200 multiplex assay (Luminex; R&D system, USA).
The main study arm with triplicate wells per group in a 24-well plate: • 1. Blank • 2. PBMC: 0.5% DMSO • 3. PBMC+LPS (5 ug/ml) • 4. PBMC+YY-101 100 uM • 5. PBMC+YY-101 10 uM • 6. PBMC+YY-101 1 uM • 7. PBMC+YY-101 0.1 uM • 8. PBMC+YY-101 0.01 uM • 9. PBMC+LPS (5 ug/ml)+Xiidra®100 uM • 10. PBMC+LPS (5 ug/ml)+Xiidra® 10 uM • 11. PBMC+LPS (5 ug/ml)+Xiidra® 1 uM • 12. PBMC+LPS (5 ug/ml)+Xiidra®0.1 uM • 13. PBMC+LPS (5 ug/ml)+Xiidra®0.01 uM • 14. PBMC+LPS (5 ug/ml)+Xiidra®0.001 uM • 15. PBMC+LPS (5 ug/ml)+YY-101 100 uM • 16. PBMC+LPS (5 ug/ml)+YY-101 10 uM • 17. PBMC+LPS (5 ug/ml)+YY-101 1 uM • 18. PBMC+LPS (5 ug/ml)+YY-101 0.1 uM • 19. PBMC+LPS (5 ug/ml)+YY-101 0.01 uM • 20. PBMC+LPS (5 ug/ml)+YY-101 0.001 uM • 21. PBMC+LPS (5 ug/ml)+YDE-011 100 uM • 22. PBMC+LPS (5 ug/ml)+YDE-011 10 uM • 23. PBMC+LPS (5 ug/ml)+YDE-011 1 uM • 24. PBMC+LPS (5 ug/ml)+YDE-011 0.1 uM • 25. PBMC+LPS (5 ug/ml)+YDE-011 0.01 uM • 26. PBMC+LPS (5 ug/ml)+YDE-011 0.001 uM • 27. PBMC+LPS (5 ug/ml)+YDE-043 100 uM • 28. PBMC+LPS (5 ug/ml)+YDE-043 10 uM • 29. PBMC+LPS (5 ug/ml)+YDE-043 1 uM • 30. PBMC+LPS (5 ug/ml)+YDE-043 0.1 uM • 31. PBMC+LPS (5 ug/ml)+YDE-043 0.01 uM • 32. PBMC+LPS (5 ug/ml)+YDE-043 0.001 uM
Multiplex assay was used to measure 30 cytokines and chemokines. The 1:2, 1:10 and 1:200 diluted cell supernatant and serial dilution of the standard were dispensed into a 96 well plate at 50 ul/well. Then, the pre-mixed cocktail of antibody-coated magnetic beads was dispensed at 50 ul/well and incubated at room temperature for 2 h in a horizontal orbital microplate shaker at 800±500 rpm. The beads were washed using a magnetic device to prevent loss. The biotin-antibody was dispensed in 50 ul of each well and incubated at room temperature for 1 h in a shaker at 800±500 rpm. After washing, streptavidin-PE was added at 50 ul/well and incubated at room temperature for 30 min in a shaker under the same conditions. Finally, after washing, wash buffer (100 ul/well) was added to the plate and incubated in a shaker for 2 min. The Luminex™ 200 setting were set according to the manufacturer's protocol. The data was calculated with a standard five-parameter logistic nonlinear regression analysis of the data (xPonent software 4.2, USA). The levels of cytokine/chemokine are normalized to the live cell counts (1×10^5 cells/mL) and presented as concentrations per mL (pg/mL or ng/mL).

[2] = PBMC + LPS(5 ug/ml) + 0.001 uM, Mean
[3] = PBMC + LPS(5 ug/ml) + 0.001 uM, single replicates
[4] = PBMC + LPS(5 ug/ml) + 0.01 uM, Mean
[5] = PBMC + LPS(5 ug/ml) + 0.01 uM, single replicates
[6] = PBMC + LPS(5 ug/ml) + 0.1 uM, Mean
[7] = PBMC + LPS(5 ug/ml) + 0.1 uM, single replicates
[8] = PBMC + LPS(5 ug/ml) + 1 uM, Mean
[9] = PBMC + LPS(5 ug/ml) + 1 uM, single replicates
[10] = PBMC + LPS(5 ug/ml) + 10 uM, Mean
[11] = PBMC + LPS(5 ug/ml) + 10 uM, single replicates
[12] = PBMC + LPS(5 ug/ml) + 100 uM, Mean
[13] = PBMC + LPS(5 ug/ml) + 100 uM, single replicates

For `CC(C)C[C@H](NC(=O)[C@H](CCC(N)=O)NC(=O)CNC(=O)[C@@H]1C[C@@H](O)CN1)C(=O)NCC(=O)O` [YDE-043] (H-[Hyp]GQLG-OH; N-terminus and C-terminus assumed), the “Classification (Caco-2 Permeability)” value (Caco-2 cells monolayer) was “LOW”, the recovery ([1]; read-out: A to B % Recovery) was 34% and the recovery ([1]; read-out: B to A % Recovery) was 67.2%. The “MMP-9 Concentration” value (MMP-9; [2]) was 222.6 pg/mL, the MMP-9 conc/live cell (MMP-9; [2]) was 45.0 pg/10^5 and the “MMP-9 Concentration” value (MMP-9; [3]) was 170.9 pg/mL and 234.0 pg/mL and 262.8 pg/mL. The MMP-9 conc/live cell (MMP-9; [3]) was 38.8 pg/10^5 and 39.0 pg/10^5 and 57.1 pg/10^5, the “MMP-9 Concentration” value (MMP-9; [4]) was 186.3 pg/mL and the MMP-9 conc/live cell (MMP-9; [4]) was 35.6 pg/10^5. The “MMP-9 Concentration” value (MMP-9; [5]) was 180.2 pg/mL and 186.3 pg/mL and 192.4 pg/mL, the MMP-9 conc/live cell (MMP-9; [5]) was 40.0 pg/10^5 and 28.2 pg/10^5 and 38.5 pg/10^5 and the “MMP-9 Concentration” value (MMP-9; [6]) was 173.9 pg/mL. For the same compound, the MMP-9 conc/live cell (MMP-9; [6]) was 32.4 pg/10^5, the “MMP-9 Concentration” value (MMP-9; [7]) was 192.4 pg/mL and 155.2 pg/mL and 174.0 pg/mL and the MMP-9 conc/live cell (MMP-9; [7]) was 38.5 pg/10^5 and 27.7 pg/10^5 and 31.1 pg/10^5. For the same compound, the “MMP-9 Concentration” value (MMP-9; [8]) was 178.0 pg/mL, the MMP-9 conc/live cell (MMP-9; [8]) was 33.5 pg/10^5 and the “MMP-9 Concentration” value (MMP-9; [9]) was 198.5 pg/mL and 155.2 pg/mL and 180.2 pg/mL. For the same compound, the MMP-9 conc/live cell (MMP-9; [9]) was 34.2 pg/10^5 and 32.3 pg/10^5 and 34.0 pg/10^5, the “MMP-9 Concentration” value (MMP-9; [10]) was 189.3 pg/mL and the MMP-9 conc/live cell (MMP-9; [10]) was 35.1 pg/10^5. For the same compound, the “MMP-9 Concentration” value (MMP-9; [11]) was 198.5 pg/mL and 192.4 pg/mL and 177.1 pg/mL, the MMP-9 conc/live cell (MMP-9; [11]) was 38.2 pg/10^5 and 35.6 pg/10^5 and 31.6 pg/10^5 and the “MMP-9 Concentration” value (MMP-9; [12]) was 139.0 pg/mL. The MMP-9 conc/live cell (MMP-9; [12]) was 22.1 pg/10^5, the “MMP-9 Concentration” value (MMP-9; [13]) was 148.8 pg/mL and 129.2 pg/mL and the MMP-9 conc/live cell (MMP-9; [13]) was 24.0 pg/10^5 and 20.2 pg/10^5.
